The values below come from patent US20230202989A1, “COMPOUNDS” (JANSSEN PHARMACEUTICA NV, priority 2020, published 2023).

Where two headings read alike, the source gives them in different places.

Test [1] relates to IL-1β. The test is described as follows: PBMC assay: inhibition of IL-1β release after LPS stimulation (MSD). The test is classed as cell-based. Conditions: human PBMCs, 100 ng/ml LPS for 6 hrs, MSD, 96 well plates, read-out: IL1β IC50. In a few lines:
(§1)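 TNF (EC50) and IL-1β (IC50) were quantified by MSD in supernatants after 6 h stimulation with 100 ng/ml LPS. Thawed healthy-donor PBMCs, 7.5×10^4 per well, were exposed to 1:3 compound dilutions for 30 min beforehand at 37 °C.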

Test [2] has as its system TNF. The test is described as follows: PBMC assay: TNF cytokine levels after LPS stimulation (MSD). It counts as cell-based. Conditions: human PBMCs, 100 ng/ml LPS for 6 hrs. Put shortly:
as §1

The IC50 is the concentration at which inhibition is half-maximal. The EC50 is the concentration that produces a half-maximal response. Read a low EC50 as higher potency in that assay. As for `CC(C)c1nn(CC(=O)N[C@@H]2CC[C@@H]2O)c(=O)c2ccc(C(F)(F)F)cc12` [Final Cpd X95], the IC50 in test [1] (Homo sapiens, PBMC, 6 h) is 1100 nM. Besides, the 50% effective concentration (EC50) in test [2] (Homo sapiens, PBMC, 6 h) was greater than 20000 nM.
For `CC(C)c1nn(CC(=O)Nc2nc(Cl)c3ncn(C)c3n2)c(=O)c2ccc(C(F)(F)F)cc12` [Final Cpd X96], in that order: 1110 nM and greater than 20000 nM.
For `CC(C)c1nn(CC(=O)Nc2ccc3nc(C#N)cn3c2)c(=O)c2ccc(C(F)(F)F)cc12` [Final Cpd X97], in that order: 1120 nM and greater than 20000 nM.
For `CC(C)c1nn(CC(=O)N[C@@H]2CCCC[C@H]2O)c(=O)c2ccc(C(F)(F)F)cc12` [Final Cpd X98], in that order: 1150 nM and greater than 20000 nM.
Regarding `CC(C)c1nn(CC(=O)N[C@H]2C[C@H](C(C)(C)O)C2)c(=O)c2ccc(C(F)(F)F)cc12` [Final Cpd X99], the IC50 in test [1] (Homo sapiens, PBMC, 6 h) worked out at 1160 nM. In test [2] (Homo sapiens, PBMC, 6 h), this molecule showed a concentration for a half-maximal effect (EC50) greater than 20000 nM.
For `CC(C)c1nn(CC(=O)N[C@@H]2CC[C@](C)(O)C2)c(=O)c2ccc(C(F)(F)F)cc12` [Final Cpd X100], in that order: 1260 nM and greater than 20000 nM.
For `CC(C)c1nn(CC(=O)Nc2ccc3cnnn3c2)c(=O)c2ccc(C(F)(F)F)cc12` [Final Cpd X101], in that order: 1280 nM and greater than 20000 nM.
For `COC(C)c1nn(CC(=O)Nc2ccc3nncn3c2)c(=O)c2ccc(C(F)(F)F)cc12` (stereo not shown) [Final Cpd X102], in that order: 1300 nM and greater than 20000 nM.
For the molecule `CC(O)c1nn(CC(=O)Nc2ccncn2)c(=O)c2ccc(C(F)(F)F)cc12` (stereo not shown) [Final Cpd X103], the 50% inhibitory concentration (IC50) in test [1] (Homo sapiens, PBMC, 6 h) came to 1320 nM. Moreover, in test [2] (Homo sapiens, PBMC, 6 h), the EC50 is greater than 20000 nM.
For `CC(C)c1nn(CC(=O)N[C@H]2CN(C3COC3)CC[C@H]2O)c(=O)c2ccc(C(F)(F)F)cc12` [Final Cpd X104], in that order: 1410 nM and greater than 20000 nM.
With `CO[C@H]1C[C@H](NC(=O)Cn2nc(C(C)C)c3cc(C(F)(F)F)ccc3c2=O)C1` [Final Cpd X105], in test [1] (Homo sapiens, PBMC, 6 h), the concentration for half-maximal inhibition (IC50) came out at 1520 nM. The same molecule displayed an EC50 in test [2] (Homo sapiens, PBMC, 6 h) greater than 20000 nM.
For `CC(C)c1nn(CC(=O)N[C@@H]2CCc3nncn3C2)c(=O)c2ccc(C(F)(F)F)cc12` [Final Cpd X106], in that order: 1610 nM and greater than 20000 nM.
For `COC(C)c1nn(CC(=O)N[C@H]2C[C@@](C)(O)C2)c(=O)c2ccc(C(F)(F)F)cc12` (stereo partly shown) [Final Cpd X107], in that order: 1610 nM and greater than 20000 nM.
For `CC(C)c1nn(CC(=O)N[C@H]2C[C@@H](C(C)(C)O)C2)c(=O)c2ccc(C(F)(F)F)cc12` [Final Cpd X108], in that order: 1630 nM and greater than 20000 nM.
As to `CC(C)c1nn(CC(=O)N[C@@H]2CC[C@@](C)(O)C2)c(=O)c2ccc(C(F)(F)F)cc12` [Final Cpd X110], the IC50 in test [1] (Homo sapiens, PBMC, 6 h) stood at 1640 nM. Also, in test [2] (Homo sapiens, PBMC, 6 h), the concentration for a half-maximal effect (EC50) is greater than 20000 nM.
For `COC(C)c1nn(CC(=O)Nc2ccncn2)c(=O)c2ccc(C(F)(F)F)cc12` (stereo not shown) [Final Cpd X111], in that order: 1700 nM and 7930 nM.
As for `CC(C)c1nn(CC(=O)Nc2ccn(C)c(=O)n2)c(=O)c2ccc(C(F)(F)F)cc12` [Final Cpd X112], the 50% inhibitory concentration (IC50) in test [1] (Homo sapiens, PBMC, 6 h) came out at 1730 nM. Besides, the EC50 in test [2] (Homo sapiens, PBMC, 6 h) is greater than 20000 nM.
For `CC(C)c1nn(CC(=O)Nc2ccc3c(c2)nnn3C)c(=O)c2ccc(C(F)(F)F)cc12` [Final Cpd X113], in that order: 1860 nM and greater than 20000 nM.
Take `CC(C)c1nn(CC(=O)Nc2ccc3cnn(C)c3c2)c(=O)c2ccc(C(F)(F)F)cc12` [Final Cpd X114]: the IC50 in test [1] (Homo sapiens, PBMC, 6 h) turned out to be 1940 nM. The 50% effective concentration (EC50) in test [2] (Homo sapiens, PBMC, 6 h) was greater than 20000 nM.
Regarding `CC(C)c1nn(CC(=O)N[C@@H]2CC[C@@H]2O)c(=O)c2ccc(C(F)(F)F)cc12` [Final Cpd X115], the concentration for half-maximal inhibition (IC50) in test [1] worked out at 2020 nM. This molecule also registered an EC50 in test [2] greater than 20000 nM.
Turning to `CO[C@H]1C[C@@H](NC(=O)Cn2nc(C(C)C)c3cc(C(F)(F)F)ccc3c2=O)C1` [Final Cpd X116], the IC50 in test [1] (Homo sapiens, PBMC, 6 h) turned out to be 2090 nM. In test [2] (Homo sapiens, PBMC, 6 h), this molecule registered a 50% effective concentration (EC50) greater than 20000 nM.
Turning to `CCN1C[C@H](NC(=O)Cn2nc(C(C)C)c3cc(C(F)(F)F)ccc3c2=O)CC(F)(F)C1` [Final Cpd X117], the IC50 in test [1] (Homo sapiens, PBMC, 6 h) stood at 2110 nM. In addition, in test [2] (Homo sapiens, PBMC, 6 h), the EC50 was greater than 20000 nM.
For `CC(C)c1nn(CC(=O)Nc2ccc3nc(C(F)F)cn3n2)c(=O)c2ccc(C(F)(F)F)cc12` [Final Cpd X118], in that order: 2130 nM and greater than 20000 nM.
For `CC(C)c1nn(CC(=O)N[C@H]2C[C@@](O)(C(F)(F)F)C2)c(=O)c2ccc(C(F)(F)F)cc12` [Final Cpd X119], in that order: 2130 nM and greater than 20000 nM.
For `CC(C)c1nn(CC(=O)Nc2cc(Cl)c(=O)n(C(F)F)c2)c(=O)c2ccc(C(F)(F)F)cc12` [Final Cpd X120], in that order: 2570 nM and greater than 20000 nM.
Consider `CC(C)c1nn(CC(=O)NC2(C)CC(O)C2)c(=O)c2ccc(C(F)(F)F)cc12` (stereo not shown) [Final Cpd X121], for which the IC50 in test [1] (Homo sapiens, PBMC, 6 h) was determined as 2650 nM. Besides, the EC50 in test [2] (Homo sapiens, PBMC, 6 h) is greater than 20000 nM.
